Source: patent US11147816B2, “Composition for inducing differentiation and protection of neural stem cells and method for inducing neuro-regeneration using the same composition” (GENUV Inc., priority 2016, dated 2021)

Assays:
5XFAD mouse [1] = experiment: Tuj1 expression in the somatosensory cortex (Example 9-1); format: in vivo; details: 0.1 mg/kg orally daily for 28 days, vs vehicle
Method: Anti-Tuj1 antibodies were added to the brain tissue slides of 5XFAD mouse in Example 8 and incubated at 4° C. for 1 day, after which the tissue slides were fluorescently stained by incubating with Fluorescein isothiocyanate (FITC)-secondary antibodies (Invitrogen, cat#. A21121) at room temperature for 1 hour. In FIG. 15, the areas marked with arrows (→) indicate cells stained with Tuj1 and the areas marked with arrowheads (▾) indicate plaques formed by amyloid-beta aggregation. Plaques were present in both vehicle-treated and trametinib-treated groups.

pERK = experiment: Western blotting of pERK in brain hemispheres (Example 12); details: 0.1 mg/kg and 1.0 mg/kg orally daily for 28 days, vs vehicle
Method: The mouse was then anesthetized and perfused with PBS for the extraction of the brain. Of the brains extracted from 3 mice of each group, half of the brain tissue (hemispheres) was immediately stored in the deep freezer for western blotting and ELISA experiments to be performed later.
The powder was divided into 6 parts, put into new tubes, and placed back into the deep freezer. […] The powder was carefully suspended with a pipette in RIPA buffer, incubated on ice for 10 minutes, centrifuged at 13000 rpm, 4° C., and the supernatant was collected. […] The protein bands were detected with a photosensitive imaging system (FIG. 19a). In order to quantify the change in pERK expression, the expression levels of pERK and ERK were measured by densitometry, and the expression level of pERK was normalized against the expression level of ERK.

5XFAD mouse [2] = experiment: Cerebellar Purkinje cell Tuj1 and calbindin staining (Example 11); format: in vivo; details: particularly 0.1 mg/kg, orally daily for 28 days, vs vehicle
Description: Two slides for Tuj1 staining and three for calbindin staining are shown for each treatment group.

Aβ(1-40) and Aβ(1-42) = experiment: ELISA of Aβ(1-40) and Aβ(1-42) in brain hemispheres (Example 13); format: in vivo, mouse; details: orally daily for 28 days, vs vehicle
Method: Using the ground powder of 5XFAD mouse brain hemispheres obtained in Example 12, the amount of Aβ(1-40) and Aβ(1-42) was quantified by ELISA (enzyme-linked immunosorbent assay). […] After measuring the protein concentration, dilution buffer was added to obtain 30˜50 μg of protein in 100 μl solution. 100 μl each of anti-Aβ(1-40) and Aβ(1-42) antibodies were added to the 96-well plates, incubated at room temperature for 2 hours, then removed and washed 4 times with wash buffer. 100 μl each of HRP-conjugated secondary antibodies was added and incubated at room temperature for 30 minutes. The solution was then removed and washed again 4 times with wash buffer. 100 μl of the […] was added to the wells, incubated in the dark for 30 minutes, and 100 μl of the stop solution added to terminate the reaction. Then, the chemiluminiscence reaction was measured at 450 nm with an ELISA plate reader. The absorbance was converted in reference to the standard concentration and the concentration of each protein was determined. The amount of Aβ(1-40) and Aβ(1-42) in reference to the total amount of protein (30˜50 μg) was calculated, and then the amount of Aβ(1-42) in reference to the amount of Aβ(1-40) was calculated.

[3] = test system: mouse embryonic neural stem cells; experiment: Morphology analysis of NSC differentiation in mouse embryonic neural stem cells (Examples 1, 6); format: cell-based
Method: Neural stem cells were isolated from the brain of a day 14.5 mouse embryo, treated with 10 ng/ml human basic fibroblast growth factor (bFGF) (Peprotech, Princeton, NG, cat#.100-18B) and 20 ng/ml human epidermal growth factor (EGF) (Peprotech, cat#. AF-100-15) in a N2 culture medium, and cultured in suspension in a 25 cm2 flask (Nunc, Pittsburgh, Pa.) for 4 days. Formation of neurospheres was observed after 2 days.
In order to isolate single cells, 6-well plates were prepared the day before by treating the wells with 15 μg/ml poly-L-ornithine (Sigma, St. Louis, Mo., cat#.P2533) solution and incubating overnight at 37° C. for coating. The day of the single cell isolation, poly-L-ornithine solution was removed, the plates were washed with PBS three times, and 10 μg/ml fibronectin (Gibco, Waltham, Mass., cat#. 33016015) solution was added and incubated at 37° C. for 2 hours for coating.
Various concentrations of the compound of [Formula 1] […]

5XFAD mouse [4] = experiment: Nissl, NeuN and DCX staining in the hippocampal dentate gyrus (Example 9-2); format: in vivo; details: orally daily for 28 days
Method: After placing in 0.1% cresyl violet (Sigma, cat#. C5042) solution at room temperature for 15 minutes, they were dehydrated by sequentially immersing in 80%, 90%, 100% alcohol, and xylene. Coverslips were put on the slides and the neurons examined.
NeuN staining was performed by the same method as described in Example 8 as was DCX staining, but using anti-DCX antibodies (Santa Cruz, cat#. sc271390) instead of anti-NeuN antibodies.

[5] = test system: mouse adult neural stem cells; details: trametinib 10 nM, 100 nM, memantine 5 μM, 10 μM, 4 days
Method: NSC were isolated from the subventricular zone of week 8 mouse brain, treated with 20 ng/ml human basic fibroblast growth factor (bFGF) and 20 ng/ml human epidermal growth factor (EGF) in an IPM medium, and cultured as a suspension in 24-well plates for 7 days.
Two days before the isolation of single cells, 6-well plates were prepared by treating the wells with 10 μg/ml poly-L-ornithine solution and incubating overnight at room temperature for coating. The next day, poly-L-ornithine solution was removed and the plates were washed 3 times with sterilized triple distilled water. […] The culture solution used is N2 culture medium (supplemented with 20 ng/ml bFGF and 20 ng/ml EGF). Right before seeding, the coating solution was suctioned out, and the single cells were uniformly seeded into the culture plate before the plate dried up. Cells were allowed to attach to the plates for about one minute, and after checking that cells were sufficiently attached, an additional 1.5 ml of culture medium (N2 culture medium with 20 ng/ml bFGF and 20 ng/ml EGF) was added to the cells and cultured in a 37° C. incubator for 24 hours.
Wells not treated with amyloid-beta were left to use as negative controls.
Gibco's (Waltham, Mass.) human Aβ (1-42) was purchased to use for the amyloid-beta (Aβ), and the following process was followed to create oligomers. First, amyloid-beta was dissolved in 100% HFIP (1,1,1,3,3,3-hexafluoro-2-propanol) (Sigma, cat#.105228) to obtain a concentration of 1 mg/ml and vortexed at room temperature for 1 hour. Then, it was dried for 10 minutes in a speed Vac, after which DMSO (Sigma, cat#.D2650) was added to bring the concentration to 5 mM and then lightly vortexed at room temperature for 10 minutes. […] The solution was incubated at 4° C. for 24 hours and then added into the cultured cells.
The NCSs were cultured with the daily addition of EGF, bFGF, amyloid-beta, and test materials for 4 days.

5XFAD mouse [6] = experiment: BrdU staining in the hippocampal dentate gyrus (Example 9-3); details: orally daily for 28 days, vs vehicle
Method: For the BrdU staining to be performed later, 50 mg/kg of BrdU (Sigma, cat#. B5002) was added to the daily dose for the last 5 days. The mouse was then anesthetized and perfused with PBS for the extraction of the brain. Of the brains extracted from 3 mice of each group, half of the brain tissue (hemispheres) was immediately stored in the deep freezer for western blotting and ELISA experiments to be performed later. The other half of the hemispheres plus another 3 extracted mice brains per group were placed in 10% formalin solution at 4° C. for 1 day, which was then followed with the proceeding steps to allow good penetration of paraffin into the brain tissue. The brain tissues were immersed sequentially in 70%, 80%, 95%, 100% alcohol for 1 hour each for dehydration, then immersed in xylene 3 times for 1 hour each for clearing, and embedded in paraffin by placing in liquid paraffin 2 times for 1 hour each. After these procedures, the paraffin-embedded brain tissue (paraffin block) was cut into 5 μm sections, mounted on slides, and stored at room temperature. Prior to immunohistochemical staining, the tissues on the slides were rehydrated by sequentially immersing in xylene, 100%, 90%, 80%, 70%, 50% alcohol,and then water for 5 minutes each. […]

5XFAD mouse [7] = experiment: TUNEL assay, neuroprotective activity (Example 10); format: in vivo; details: orally daily for 28 days, vs vehicle
Method: The sagittal brain tissue slides described in Example 8 were rehydrated and stained with the TUNEL assay kit (Promega, Wis., USA, cat#. G3250). Specifically, the brain tissue slides were permeabilized with 20 μg/ml proteinase K solution for 10 minutes, incubated with equilibration buffer for 10 minutes, and then incubated with TdT solution at 37° C. for 1 hour. The staining of the somatosensory cortex and subiculum area, areas known to show significant cell death in 5XFAD mouse, were observed. TUNEL assay was also performed on the tissue slides of normal adult mouse brain (as control) to confirm that staining was properly done.

CC(=O)Nc1cccc(-n2c(=O)n(C3CC3)c(=O)c3c(Nc4ccc(I)cc4F)n(C)c(=O)c(C)c32)c1 [trametinib, N-(3-{3-cyclopropyl-5-[(2-fluoro-4-iodophenyl)amino]-6,8-dimethyl-2,4,7-trioxo-3,4,6,7-tetrahydropyrido[4,3-d]pyrimidin-1(2H)-yl}phenyl)acetamide]
number of cells stained with Tuj1, somatosensory cortex (5XFAD mouse [1]): significant increase in the number of cells stained with Tuj1 | protein level of pERK in the brain (pERK): considerably lower | Purkinje cell axon structure (5XFAD mouse [2]): increased axon arborization or at least with preserved axon structure | amount of Aβ(1-42)/Aβ(1-40) (Aβ(1-40) and Aβ(1-42)): decreased | differentiation of NSC into neurons (morphology) ([3]; 10 nM, 25 nM and 100 nM, added daily, 4 days): readily induced the differentiation of NSC into neurons | NSC differentiation-inducing effect (morphology) ([3]; 0.1 μM, day 2 of culture): excellent NSC differentiation-inducing effect | concentration at which the differentiation-inducing effect is seen ([3]; added daily, 4 days of culture): ≥ 10 nM | immature neurons stained by DCX in the dentate gyrus (5XFAD mouse [4]): seen to be present | number of cells with morphology of Type 2 or Type 3 cells in the subgranular zone of the dentate gyrus (Nissl, NeuN) (5XFAD mouse [4]): increased considerably | cell toxicity / cell death (morphology) ([5]; AS703026 10 μM): did not elicit cell toxicity | differentiation of NSC into neurons (morphology) ([5]; with or without 10 μM oligomeric Aβ(1-42)): readily induced the differentiation of NSC into neurons | number of BrdU stained cells in the dentate gyrus (5XFAD mouse [6]): an increase in the number of cells stained with BrdU | number of TUNEL stained cells in the somatosensory cortex and subiculum (5XFAD mouse [7]): significantly lower
